pIC50: −log10 of the molar value.

This passage reports IC50 results from patent US20090075989A1, “NON-STEROIDAL PROGESTERONE RECEPTOR MODULATORS” (priority 2006, published 2009).

This assay has as its target T1, progesterone receptor PR (PR-B) (Homo sapiens, UniProt P06401).
T1 sequence (P06401 1-933): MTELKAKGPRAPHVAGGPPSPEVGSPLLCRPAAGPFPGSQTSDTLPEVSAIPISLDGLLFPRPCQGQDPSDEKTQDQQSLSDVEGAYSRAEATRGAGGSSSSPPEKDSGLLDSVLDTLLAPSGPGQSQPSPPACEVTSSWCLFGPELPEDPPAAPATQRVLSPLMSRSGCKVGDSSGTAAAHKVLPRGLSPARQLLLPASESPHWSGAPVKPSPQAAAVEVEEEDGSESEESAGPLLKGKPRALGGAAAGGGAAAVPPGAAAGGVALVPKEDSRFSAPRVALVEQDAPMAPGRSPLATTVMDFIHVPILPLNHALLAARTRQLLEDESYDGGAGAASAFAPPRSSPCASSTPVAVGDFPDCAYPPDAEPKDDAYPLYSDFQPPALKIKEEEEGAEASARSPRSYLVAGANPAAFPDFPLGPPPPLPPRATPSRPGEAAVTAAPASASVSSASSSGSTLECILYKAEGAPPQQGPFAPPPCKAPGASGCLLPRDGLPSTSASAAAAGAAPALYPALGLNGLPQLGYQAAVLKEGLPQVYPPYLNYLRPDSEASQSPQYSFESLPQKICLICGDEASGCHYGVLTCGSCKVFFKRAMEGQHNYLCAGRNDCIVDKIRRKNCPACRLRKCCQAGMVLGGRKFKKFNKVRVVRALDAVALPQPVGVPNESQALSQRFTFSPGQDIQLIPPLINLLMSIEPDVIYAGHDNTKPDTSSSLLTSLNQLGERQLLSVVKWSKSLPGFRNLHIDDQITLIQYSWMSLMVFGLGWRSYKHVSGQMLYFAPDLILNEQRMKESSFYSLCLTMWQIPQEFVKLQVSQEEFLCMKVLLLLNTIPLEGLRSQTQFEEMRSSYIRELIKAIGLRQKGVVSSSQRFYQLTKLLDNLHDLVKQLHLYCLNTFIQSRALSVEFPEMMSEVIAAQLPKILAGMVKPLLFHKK
As to the kind of experiment: Transactivation assay, antagonism on the progesterone receptor PR. The format is cell-based. As to conditions: transactivation test for antagonistic activity on (PR-B). As to the method: Antagonism on the progesterone receptor PR
The transactivation assay is carried out as described in WO 02/054064.

The pIC50 is the IC50 on a negative log10 scale, so that one unit is a factor of ten. High values mean a small IC50, low ones a large IC50. Take `N#Cc1ccc(NC(=O)C(O)(Cc2ccccc2)c2ccccc2)cc1Cl` (racemic) [Example 29b, rac-N-(3-chloro-4-cyanophenyl)-2-hydroxy-2,3-diphenylpropionamide]: the pIC50 is 7.40.

As for `Cc1noc(=O)c2ccc(NC(=O)C(O)(Cc3ccccc3)c3ccc(N(C)C)cc3)cc12` (racemic) [Example 48d, rac-6-[2-hydroxy-2-(4-dimethylaminophenyl)-3-phenylpropionylamino]-4-methyl-2,3-benzoxazin-1-one], the pIC50 is 7.30.

Molecule `N#Cc1ccc(NC(=O)C(O)(Cc2ccccc2)c2ccccc2)cc1C(F)(F)F` (racemic) [Example 34b, rac-N-(4-cyano-3-trifluoromethylphenyl)-2-hydroxy-2,3-diphenylpropionamide] gave a pIC50 of 7.15.

On to `Cc1noc(=O)c2ccc(NC(=O)C(O)(Cc3ccccc3)c3ccccc3)cc12` (racemic) [Example 5, rac-6-[2-hydroxy-2,3-diphenylpropionylamino]-4-methyl-2,3-benzoxazin-1-one], for which the pIC50 was 8.30.

`Cc1noc(=O)c2ccc(NC(=O)C(O)(Cc3ccccc3)c3ccc([N+](=O)[O-])cc3)cc12` (racemic) [Example 10, rac-6-[2-hydroxy-2-(4-nitrophenyl)-3-phenylpropionylamino]-4-methyl-2,3-benzoxazin-1-one]: the negative-log IC50 (pIC50) was 8.30.

Molecule `Cc1noc(=O)c2ccc(NC(=O)C(O)(Cc3ccccc3)c3cccs3)cc12` (racemic) [Example 64b, rac-6-[2-hydroxy-2-(thiophen-2-yl)-3-phenylpropionylamino]-4-methyl-2,3-benzoxazin-1-one] showed a pIC50 of 8.05.

The molecule `Cc1noc(=O)c2ccc(NC(=O)C(O)(Cc3ccccc3)c3ccc(C(C)(C)C)cc3)cc12` (racemic) [Example 45c, rac-6-[2-hydroxy-2-(4-(1,1-dimethylethyl)phenyl)-3-phenylpropionylamino]-4-methyl-2,3-benzoxazin-1-one] showed a pIC50 of 8.49.

`Cc1noc(=O)c2ccc(NC(=O)C(O)(C#Cc3ccccc3)c3ccccc3)cc12` (racemic) [Example 1b, rac-6-[2,4-diphenyl-2-hydroxybut-3-ynoylamino]-4-methyl-2,3-benzoxazin-1-one]: the pIC50 was 7.52.

`COc1ccc(C#CC(O)(C(=O)Nc2ccc(C#N)c(Cl)c2)c2ccccc2)cc1` (racemic) [Example 80] had a pIC50 of 7.40.

`CC(=O)c1ccc(C(O)(Cc2ccccc2)C(=O)Nc2ccc3c(=O)onc(C)c3c2)cc1` (racemic) [Example 55f, rac-6-[2-hydroxy-2-(4-acetylphenyl)-3-phenylpropionylamino]-4-methyl-2,3-benzoxazin-1-one]: the pIC50 is 7.49.

As to `Cc1noc(=O)c2ccc(NC(=O)C(O)(Cc3ccccc3)c3ccc(-c4cccs4)cc3)cc12` (racemic) [Example 75, rac-6-[2-hydroxy-2-(4-thiophen-2-ylphenyl)-3-phenylpropionylamino]-4-methyl-2,3-benzoxazin-1-one], the pIC50 is 7.40.
